Common to all, as to assay type: functional
The test system of assay [1] is Mus musculus. Description: Antimalarial activity was determined by blood schizonticidal activity in mice (Mus musculus) infected with Plasmodium berghei K173 at 10 (mg/kgx5) subcutaneous dosage; Cured/treated = 0/6 on day 7.
In assay [2] the test system is Mus musculus. Description: Antimalarial activity was determined by Blood schizonticidal activity in mice (Mus musculus) infected with Plasmodium berghei K173 at 10 (mg/kgx5) subcutaneous dosage; Cured/treated = 0/5 on day 7.
Assay [3] relates to Mus musculus. Description: Antimalarial activity was determined by Blood schizonticidal activity in mice (Mus musculus) infected with Plasmodium berghei K173 at 5 (mg/kg x5) subcutaneous dosage; Cured/treated = 0/6 on day 7.
The subject of assay [4] is Mus musculus. Description: Antimalarial activity was determined by Blood schizonticidal activity in mice (Mus musculus) infected with Plasmodium berghei K173 at 5 (mg/kg x5) subcutaneous dosage; Cured/treated = 1/6 on day 7.
Assay [5] has as its system Mus musculus. The assay is described as follows: Antimalarial activity was determined by Blood schizonticidal activity in mice (Mus musculus) infected with Plasmodium berghei NS at 5 (mg/kg x5) subcutaneous dosage; Cured/treated = 22/22.
The test system of assay [6] is Mus musculus. The assay is described as follows: Antimalarial activity was determined by Blood schizonticidal activity in mice (Mus musculus) infected with Plasmodium berghei K173 at 1 (mg/kg x5) subcutaneous dosage; Cured/treated = 10/22 on day 7.
In assay [7] the test system is Mus musculus. Description: Antimalarial activity was determined by blood schizonticidal activity in mice (Mus musculus) infected with Plasmodium berghei K173 at 1.25 (mg/kgx5) subcutaneous dosage; Cured/treated = 26/34 on day 7.
The subject of assay [8] is Mus musculus. Description: Antimalarial activity was determined by Blood schizonticidal activity in mice (Mus musculus) infected with Plasmodium berghei NS at 25 (mg/kgx5) peroral dosage; Cured/treated = 6/6.
Assay [9] relates to Mus musculus. Description: Antimalarial activity was determined by Blood schizonticidal activity in mice (Mus musculus) infected with Plasmodium berghei K173 at 25 (mg/kgx5) peroral dosage; Cured/treated = 16/16.
Assay [10] concerns Mus musculus. Description: Antimalarial activity was determined by blood schizonticidal activity in mice (Mus musculus) infected with Plasmodium berghei NS at 2.5 (mg/kgx5) subcutaneous dosage; Cured/treated = 11/12.
For assay [11], the system named is Mus musculus. Description: Antimalarial activity was determined by Blood schizonticidal activity in mice (Mus musculus) infected with Plasmodium berghei K173 at 2.5 (mg/kgx5) subcutaneous dosage; Cured/treated = 28/28 on day 7.
In assay [12] the test system is Mus musculus. Description: Antimalarial activity was determined by blood schizonticidal activity in mice (Mus musculus) infected with Plasmodium berghei K173 at 10 (mg/kgx5) peroral dosage; Cured/treated = 34/39 on day 7.
Assay [13] deals with Mus musculus. The assay is described as follows: Antimalarial activity was determined by Blood schizonticidal activity in mice (Mus musculus) infected with Plasmodium berghei K173 at 15 (mg/kg x5) peroral dosage; Cured/treated = 19/22 on day 7.
For assay [14], the system named is Mus musculus. Description: Antimalarial activity was determined by Blood schizonticidal activity in mice (Mus musculus) infected with Plasmodium berghei K173 at 20 (mg/kg x5) peroral dosage; Cured/treated = 0/6.
Assay [15] deals with Mus musculus. Description: Antimalarial activity was determined by Blood schizonticidal activity in mice (Mus musculus) infected with Plasmodium berghei K173 at 10 (mg/kgx5) subcutaneous dosage; Cured/treated = 0/4 on day 7.
The test system of assay [16] is Mus musculus. Description: Antimalarial activity was determined by blood schizonticidal activity in mice (Mus musculus) infected with Plasmodium berghei K173 at 25 (mg/kgx5) peroral dosage; Cured/treated = 0/6.
The subject of assay [17] is Mus musculus. The assay is described as follows: Antimalarial activity was determined by Blood schizonticidal activity in mice (Mus musculus) infected with Plasmodium berghei K173 at 10 (mg/kgx5) subcutaneous dosage; Cured/treated = 6/6.
Assay [18] has as its system Mus musculus. The assay is described as follows: Antimalarial activity was determined by Blood schizonticidal activity in mice (Mus musculus) infected with Plasmodium berghei K173 at 5 (mg/kg x5) subcutaneous dosage; Cured/treated = 2/6 on day 7.
The subject of assay [19] is Mus musculus. The assay is described as follows: Antimalarial activity was determined by Blood schizonticidal activity in mice (Mus musculus) infected with Plasmodium berghei K173 at 5 (mg/kg x5) subcutaneous dosage; Cured/treated = 0/5 on day 7.
Assay [20] deals with Mus musculus. Description: Antimalarial activity was determined by Blood schizonticidal activity in mice (Mus musculus) infected with Plasmodium berghei K173 at 5 (mg/kg x5) subcutaneous dosage; Cured/treated = 6/6 on day 7.
In assay [21] the test system is Mus musculus. The assay is described as follows: Antimalarial activity was determined by Blood schizonticidal activity in mice (Mus musculus) infected with Plasmodium berghei K173 at 5 (mg/kg x5) subcutaneous dosage; Cured/treated = 5/6 on day 7.
Assay [22] concerns Mus musculus. The assay is described as follows: Antimalarial activity was determined by Blood schizonticidal activity in mice (Mus musculus) infected with Plasmodium berghei K173 at 2.5 (mg/kgx5) subcutaneous dosage; Cured/treated = 0/6 on day 7.
In assay [23] the test system is Mus musculus. The assay is described as follows: Antimalarial activity was determined by blood schizonticidal activity in mice (Mus musculus) infected with Plasmodium berghei K173 at 5 (mg/kg x5) subcutaneous dosage; Cured/treated = 6/6.
For assay [24], the system named is Mus musculus. The assay is described as follows: Antimalarial activity was determined by Blood schizonticidal activity in mice (Mus musculus) infected with Plasmodium berghei K173 at 25 (mg/kgx5) peroral dosage; Cured/treated = 0/6 on day 7.
Assay [25] deals with Mus musculus. Description: Antimalarial activity was determined by blood schizonticidal activity in mice (Mus musculus) infected with Plasmodium berghei K173 at 2.5 (mg/kgx5) subcutaneous dosage; Cured/treated = 0/4 on day 7.
Assay [26] relates to Mus musculus. Description: Antimalarial activity was determined by Blood schizonticidal activity in mice (Mus musculus) infected with Plasmodium berghei K173 at 5 (mg/kg x5) subcutaneous dosage; Cured/treated = 5/5.

Each structure is given as a SMILES string.

In the assay with Mus musculus [1], `C[C@@H]1CCC2[C@]34OOC(C)(CCC13)O[C@H]4O[C@]2(C)C(=O)O` (single isomer, unassigned) came in with a Cured/treated of 0. In turn, `CCOC(=O)C(=C[C@@]1(C)O[C@@H]2OC3(C)CCC4[C@H](C)CC[C@@H]1[C@]42OO3)C(=O)OCC` (single isomer, unassigned) registered a Cured/treated in the assay with Mus musculus [2] of 0. As to `C[C@@H]1CC[C@@H]2[C@]34OOC(C)(CCC13)O[C@H]4O[C@]2(C)COC(=S)N1CCN(c2cccc(C(F)(F)F)c2)CC1` (single isomer, unassigned), the Cured/treated in the assay with Mus musculus [3] came to 0. Turning to `C[C@@H]1CC[C@@H]2[C@]34OOC(C)(CCC13)O[C@H]4O[C@]2(C)CC(=O)Oc1ccc([N+](=O)[O-])cc1` (single isomer, unassigned), the Cured/treated in the assay on Mus musculus [4] is 1.

In the case of `C[C@@H]1CC[C@@H]2[C@]34OO[C@@](C)(CCC13)O[C@H]4O[C@]2(C)CO/C(S)=N/c1ccc(Cl)cc1` (some centres not stated), the Cured/treated worked out at 22 in the assay with Mus musculus [5]; 10 in the assay on Mus musculus [6]; 26 with Mus musculus [7]; 6 with Mus musculus [8]; 16 in the assay with Mus musculus [9]; 11 in the assay on Mus musculus [10]. Besides, the Cured/treated with Mus musculus [11] was determined as 28; with Mus musculus [12], 34; in the assay with Mus musculus [13], 19. In the assay with Mus musculus [3], `C[C@@H]1CC[C@@H]2[C@]34OOC(C)(CCC13)O[C@H]4O[C@]2(C)COS(C)(=O)=O` (single isomer, unassigned) gave a Cured/treated of 0. In the assay on Mus musculus [1], `C[C@@H]1CC[C@@H]2[C@]34OOC(C)(CCC13)O[C@H]4O[C@]2(C)COS(=O)(=O)c1ccccc1` (single isomer, unassigned) had a Cured/treated of 0. On to `C[C@@H]1CC[C@@H]2[C@]34OOC(C)(CCC13)O[C@H]4O[C@]2(C)C(=O)OCCCCl` (single isomer, unassigned), for which the Cured/treated in the assay with Mus musculus [3] amounted to 0. The same measure, in the same setting: to `C[C@@H]1CC[C@@H]2[C@]34OOC(C)(CCC13)O[C@H]4O[C@]2(C)COC(=O)CCl` (single isomer, unassigned) belongs 0. As to `CCN(CC)CCOC[C@@]1(C)O[C@@H]2O[C@]3(C)CCC4[C@H](C)CC[C@@H]1[C@]42OO3` (some centres not stated), the Cured/treated in the assay with Mus musculus [14] and in the assay on Mus musculus [3] was 0 each time. As to `C[C@@H]1CC[C@@H]2[C@]34OOC(C)(CCC13)O[C@H]4O[C@]2(C)C(=O)N1CCOCC1` (single isomer, unassigned), the Cured/treated in the assay on Mus musculus [1] was found to be 0. As for `C[C@@H]1CC[C@@H]2[C@]34OOC(C)(CCC13)O[C@H]4O[C@]2(C)C(=O)OCCCCCCCCCl` (single isomer, unassigned), the Cured/treated with Mus musculus [15] turned out to be 0. In the assay on Mus musculus [1], `C[C@@H]1CC[C@@H]2[C@]34OO[C@@](C)(CCC13)O[C@H]4O[C@]2(C)COC(=O)C(=O)O` (some centres not stated) returned a Cured/treated of 0. Molecule `C=CCOC(=O)[C@@]1(C)O[C@@H]2OC3(C)CCC4[C@H](C)CC[C@@H]1[C@]42OO3` (single isomer, unassigned) displayed a Cured/treated in the assay with Mus musculus [1] of 0. For the molecule `C[C@@H]1CC[C@@H]2[C@]34OOC(C)(CCC13)O[C@H]4O[C@]2(C)C(=O)OCCBr` (single isomer, unassigned), the Cured/treated in the assay with Mus musculus [3] amounted to 0.

`C[C@@H]1CC[C@@H]2[C@]34OOC(C)(CCC13)O[C@H]4O[C@]2(C)COC=O` (single isomer, unassigned) registered a Cured/treated in the assay with Mus musculus [2] of 0. `C[C@@H]1CC[C@@H]2[C@]34OO[C@@](C)(CCC13)O[C@H]4O[C@]2(C)C(=O)N1CCN(C)CC1` (some centres not stated): in the assay on Mus musculus [1], the Cured/treated came out at 0. Turning to `C[C@@H]1CC[C@@H]2[C@]34OOC(C)(CCC13)O[C@H]4O[C@]2(C)C(=O)OCCCl` (single isomer, unassigned), the Cured/treated in the assay on Mus musculus [16] and in the assay on Mus musculus [3] was 0 in each case. `C#CCOC[C@@]1(C)O[C@@H]2OC3(C)CCC4[C@H](C)CC[C@@H]1[C@]42OO3` (single isomer, unassigned): the figures for the Cured/treated in the assay with Mus musculus [3] and in the assay with Mus musculus [17] were 0 and 6, respectively.

Take `C[C@@H]1CC[C@@H]2[C@]34OOC(C)(CCC13)O[C@H]4O[C@]2(C)COC/C=C/c1ccccc1` (single isomer, unassigned): the Cured/treated with Mus musculus [3] is on record as 0. As to `C[C@@H]1CC[C@@H]2[C@]34OO[C@@](C)(CCC13)O[C@H]4O[C@]2(C)CC(=O)ONc1ccc(Cl)cc1` (some centres not stated), the Cured/treated in the assay on Mus musculus [14] is recorded as 0; in the assay on Mus musculus [4], 1.

In the assay on Mus musculus [1], `C[C@@H]1CCC2[C@]34OOC(C)(CCC13)O[C@H]4O[C@]2(C)CO` (single isomer, unassigned) gave a Cured/treated of 0. With `C[C@@H]1CC[C@@H]2[C@]34OOC(C)(CCC13)O[C@H]4O[C@]2(C)COC(=O)CCCCl` (single isomer, unassigned), the Cured/treated in the assay with Mus musculus [3] was found to be 0. Molecule `C[C@@H]1CC[C@@H]2[C@]34OO[C@@](C)(CCC13)O[C@H]4O[C@]2(C)C(=O)Sc1ccccc1` (some centres not stated) had a Cured/treated in the assay with Mus musculus [18] of 2.

The molecule `CCOC(=O)/C=C\[C@@]1(C)O[C@@H]2OC3(C)CCC4[C@H](C)CC[C@@H]1[C@]42OO3` (single isomer, unassigned) had a Cured/treated in the assay with Mus musculus [19] of 0. `CCOC(=O)c1cc(Cl)ccc1/N=C(/S)OC[C@@]1(C)O[C@@H]2O[C@]3(C)CCC4[C@H](C)CC[C@@H]1[C@]42OO3` (some centres not stated) showed a Cured/treated with Mus musculus [1] of 0.

In the assay with Mus musculus [20], `C[C@@H]1CC[C@@H]2[C@]34OO[C@@](C)(CCC13)O[C@H]4O[C@]2(C)CO/C(S)=N/c1ccccc1` (some centres not stated) returned a Cured/treated of 6. `Cc1ccc(S(=O)(=O)OC[C@@]2(C)O[C@@H]3OC4(C)CCC5[C@H](C)CC[C@@H]2[C@]53OO4)cc1` (single isomer, unassigned) displayed a Cured/treated in the assay on Mus musculus [21] of 5. Turning to `C[C@@H]1CC[C@@H]2[C@]34OO[C@@](C)(CCC13)O[C@H]4O[C@]2(C)CO/C(S)=N\c1ccc(F)cc1` (some centres not stated), the Cured/treated came to 0 in the assay on Mus musculus [22], 6 in the assay with Mus musculus [23] and 0 in the assay with Mus musculus [24].

Take `CCOC(=O)[C@@]1(C)O[C@@H]2OC3(C)CCC4[C@H](C)CC[C@@H]1[C@]42OO3` (single isomer, unassigned): the Cured/treated in the assay with Mus musculus [15] is given as 0. Molecule `C=CC/N=C(\S)OC[C@@]1(C)O[C@@H]2O[C@]3(C)CCC4[C@H](C)CC[C@@H]1[C@]42OO3` (some centres not stated) gave a Cured/treated in the assay with Mus musculus [1] of 0. As to `C[C@@H]1CC[C@@H]2[C@]34OOC(C)(CCC13)O[C@H]4O[C@]2(C)/C=C/c1ccc(C(F)(F)F)cc1` (single isomer, unassigned), the Cured/treated came out at 0 with Mus musculus [25] and 5 with Mus musculus [26].

For the origin of these results see ChEMBL document CHEMBL1128380, “Antimalarial activity of novel ring-contracted artemisinin derivatives” (1995).
